Results from paper PMC10331946, “Characterization of Natural Compounds as Inhibitors of NS1 Endonuclease from Canine Parvovirus Type 2” (Journal of Microbiology and Biotechnology, 2023).

What was measured:
CPV-2 NS1 endonuclease = target: T1, CPV-2 NS1 endonuclease (Canine parvovirus type 2, UniProt P12929); assay: FRET nicking assay, inhibition of recombinant CPV-2 NS1 endonuclease; assay type: biochemical, Canine parvovirus type 2 (CPV-2); settings: for IC50: single compounds, 1.25 μg endonuclease, pH 7.0, 300 mM NaCl, 37°C, curcumin by 4PL, others by linear regression
T1 construct: hexahistidine (N); hexahistidine (C); made in house; host or cells: E. coli BL21 (De3) pLysS
T1 sequence (P12929 1-277): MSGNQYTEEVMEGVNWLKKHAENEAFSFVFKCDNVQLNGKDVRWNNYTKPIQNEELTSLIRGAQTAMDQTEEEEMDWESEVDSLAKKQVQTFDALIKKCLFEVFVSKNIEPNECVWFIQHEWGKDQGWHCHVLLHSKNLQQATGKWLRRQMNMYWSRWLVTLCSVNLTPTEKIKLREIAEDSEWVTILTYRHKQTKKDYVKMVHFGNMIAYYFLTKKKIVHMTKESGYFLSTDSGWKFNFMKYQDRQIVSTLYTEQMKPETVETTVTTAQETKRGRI
Text: The fluorescence resonance energy transfer (FRET) substrate, which was composed of an oligonucleotide 5¢-TAA CCT TAC CAT AAG TA↓T CAA TCT GTC TTT-3¢ labeled with carboxyfluorescein (FAM) at the 5¢-terminus and black hole quencher 1 (BHQ1) at the 3¢-terminus as the energy transfer pair, was designed and synthesized by Bioneer Corp. (Korea) (Fig. S1).
cDNA of the CPV-2 NS1 endonuclease gene was synthesized after codon optimization (Genscript, USA) based on the N-terminal amino acid sequence (amino acids 1–277 of the DNA-binding region) of CPV-2 NS1 endonuclease (GenBank Accession No. AAV36764.1) (Fig. S2). The CPV-2 NS1 endonuclease gene was imbedded into the pET-28a (+) vector (Novagen, Germany) with hexahistidine tags at the N- and C-termini. The plasmids were transformed into E. coli BL21 (De3) pLysS (Invitrogen, USA) for expression. The transformed cells were cultured in 1 L of LB containing 30 μg/ml kanamycin at 37°C until the OD600 reached 0.6. Next, protein expression was induced with 1 mM isopropyl β-D-1-thiogalactopyranoside (IPTG) at 24°C for 20 h. Cells were harvested by centrifugation at 12,000 ×g for 25 min and 4°C. The pellet was resuspended in 50 ml 50 mM Tris-HCl buffer (pH 7.0) containing 300 mM NaCl and disrupted by sonication. After centrifugation at 12,000 ×g for 30 min and 4°C, the supernatant was applied to a Ni-NTA agarose column (Qiagen, Germany) and washed with 50 mM Tris-HCl buffer (pH 8.0) containing 300 mM NaCl and 20 mM imidazole. CPV-2 NS1 endonuclease was eluted with 50 mM Tris-HCl buffer (pH 8.0) containing 300 mM NaCl, and 250 mM imidazole, and dialyzed against 50 mM Tris-HCl (pH 7.0) containing 300 mM NaCl at 4°C overnight. The purified protein was stored at −20°C until required.
CPV-2 NS1 endonuclease activity was measured using an FRET substrate as described above. The reaction mixture was composed of 1.25 μg endonuclease and 0.6 μM FRET in 50 mM Tris-HCl buffer (pH 7.0). The reaction was run at 37°C with continuous monitoring of fluorescence for 10 min. Relative fluorescence units (RFUs) were measured using a SpectraMax M3 fluorescence plate reader (Molecular Devices, USA) with an excitation wavelength of 495 nm and an emission wavelength of 517 nm.
Thirty-one compounds, extracted sesame cake, turmeric, and yerba mate were tested for inhibitory effects against CPV-2 NS1 endonuclease. For screening, thirty-one compounds, turmeric, and yerba mate were dissolved in dimethyl sulfoxide (DMSO) to 5 mM or 10 mg/ml as stock solutions. Sesame cake extract (10 mg/ml) was solubilized in water. The reaction was initiated by adding 0.6 μM FRET substrate to a mixture of 50 μM compound and 1.25 μg endonuclease in 50 mM Tris-HCl buffer (pH 7.0) containing 300 mM NaCl. The reaction was run at 37°C for 3 min using a SpectraMax M3 fluorescence plate reader with an excitation wavelength of 495 nm and emission wavelength of 517 nm. Inhibitory activity was calculated using the following equation:
Inhibition activity (%) 100-[(S-S0)÷(C-C0)]×100
where C is RFU of the control (enzyme, buffer, and substrate) after a 3 min reaction, C0 is the RFU of the control at 0 min, S is the RFU of the sample (enzyme, buffer, inhibitor, and substrate) after 3 min, and S0 is the RFU of the sample at 0 min.
We determined the 50% inhibitory concentrations (IC50) of the six natural compounds, extracted turmeric, yerba mate, and sesame cake relative to the inhibitor-free control. The IC50 values of curcumin, and extracted sesame cake were calculated using a four-parameter logistic curve (4PL) using Prism v. 8 software (GraphPad Software Inc., USA). […] 8 software.

bird = settings: free curcumin 30 mg/kg of feed, cited from earlier work
canine = tested on: canine; design: method as in Campigotto et al., 34; settings: diet containing curcumin; ref Campigotto et al., 34; cited from earlier work
all animals = tested on: all animals; design: method as in PMID 42087962; settings: cited from earlier work
beagle dogs = tested on: beagle dogs; design: method as in Yang et al. (2022), 42; settings: dietary supplementation at 2.5 g/kg, ref Yang et al. (2022), 42; cited from earlier work
[1] = ref Marchiori et al. (2019), 49

COc1cc(/C=C/C(=O)CC(=O)/C=C/c2ccc(O)c(OC)c2)ccc1O [Curcumin]
Inhibition (%) at 50 μM (CPV-2 NS1 endonuclease; 50 μM inhibitor, 0.6 μM FRET substrate, 1.25 μg enzyme, 50 mM Tris/HCl pH 7.0, 37°C, 3 min): 100% | inhibition at 50 µM (CPV-2 NS1 endonuclease; pH 7, read-out: Inhibition (%) at 50 μM, 50 μM inhibitor, 0.6 μM FRET substrate, 1.25 μg enzyme, 50 mM Tris/HCl pH 7.0, 37°C, 3 min): > 95% | fold higher CPV-2 NS1 endonuclease inhibitory activity than demethoxycurcumin (CPV-2 NS1 endonuclease; ratio of IC50 values): 2.17 fold | IC50 (CPV-2 NS1 endonuclease; 0.6 μM FRET substrate, 3 min): 290 ± 70 nM | antioxidant capacity versus control group (bird): higher antioxidant capacity than the control group | egg production versus controls (bird; [1]): higher | egg weight and mass versus controls (bird; [1]): higher | effect on canine health (canine): enhanced canine health by stimulating the antioxidant system and erythropoiesis

O=C(OCC1OC(OC(=O)c2cc(O)c(O)c(OC(=O)c3cc(O)c(O)c(O)c3)c2)C(OC(=O)c2cc(O)c(O)c(OC(=O)c3cc(O)c(O)c(O)c3)c2)C(OC(=O)c2cc(O)c(O)c(OC(=O)c3cc(O)c(O)c(O)c3)c2)C1OC(=O)c1cc(O)c(O)c(OC(=O)c2cc(O)c(O)c(O)c2)c1)c1cc(O)c(O)c(OC(=O)c2cc(O)c(O)c(O)c2)c1 (centres unmarked) [Tannic acid]
IC50 (CPV-2 NS1 endonuclease; 0.6 μM FRET substrate, 3 min): 1180 ± 100 nM | safe proposed maximum level in complete feed (all animals): ≤ 15 mg/kg | effect on environmental stress-induced symptoms (beagle dogs): relieved environmental stress-induced diarrheal symptoms, inflammatory response, and oxidative stress
